Test results published in paper PMC9598880, “Activity of a Novel Anti-Inflammatory Agent F-3,6′-dithiopomalidomide as a Treatment for Traumatic Brain Injury” (Biomedicines, 2022).
pIC50: −log10 of the molar value.

Biological target: T1, cereblon (Homo sapiens, UniProt Q96SW2)
T1 construct: gene CRBN; CRBN/DDB1−CUL4A−Rbx1 complex (BPS Bioscience catalog no. 79770); with DDB1−CUL4A−Rbx1; BRD3
Experiment: AlphaScreen bead-based cereblon/BRD3 binding assay (called FRET in the text)

T1 sequence (Q96SW2 whole entry): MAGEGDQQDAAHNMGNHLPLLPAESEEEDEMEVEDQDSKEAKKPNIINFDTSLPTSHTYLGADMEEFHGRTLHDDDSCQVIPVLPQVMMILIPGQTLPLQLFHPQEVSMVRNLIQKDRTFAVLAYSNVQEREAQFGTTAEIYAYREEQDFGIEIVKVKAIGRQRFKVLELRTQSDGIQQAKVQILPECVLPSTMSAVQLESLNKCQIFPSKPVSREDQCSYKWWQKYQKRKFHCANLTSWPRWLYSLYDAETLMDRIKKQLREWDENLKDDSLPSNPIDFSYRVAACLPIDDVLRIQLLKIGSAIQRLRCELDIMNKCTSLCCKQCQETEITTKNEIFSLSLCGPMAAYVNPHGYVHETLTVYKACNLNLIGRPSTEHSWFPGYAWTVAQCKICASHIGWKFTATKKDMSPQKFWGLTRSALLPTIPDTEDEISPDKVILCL
T1 sequence (Q16531 2-1140 partner): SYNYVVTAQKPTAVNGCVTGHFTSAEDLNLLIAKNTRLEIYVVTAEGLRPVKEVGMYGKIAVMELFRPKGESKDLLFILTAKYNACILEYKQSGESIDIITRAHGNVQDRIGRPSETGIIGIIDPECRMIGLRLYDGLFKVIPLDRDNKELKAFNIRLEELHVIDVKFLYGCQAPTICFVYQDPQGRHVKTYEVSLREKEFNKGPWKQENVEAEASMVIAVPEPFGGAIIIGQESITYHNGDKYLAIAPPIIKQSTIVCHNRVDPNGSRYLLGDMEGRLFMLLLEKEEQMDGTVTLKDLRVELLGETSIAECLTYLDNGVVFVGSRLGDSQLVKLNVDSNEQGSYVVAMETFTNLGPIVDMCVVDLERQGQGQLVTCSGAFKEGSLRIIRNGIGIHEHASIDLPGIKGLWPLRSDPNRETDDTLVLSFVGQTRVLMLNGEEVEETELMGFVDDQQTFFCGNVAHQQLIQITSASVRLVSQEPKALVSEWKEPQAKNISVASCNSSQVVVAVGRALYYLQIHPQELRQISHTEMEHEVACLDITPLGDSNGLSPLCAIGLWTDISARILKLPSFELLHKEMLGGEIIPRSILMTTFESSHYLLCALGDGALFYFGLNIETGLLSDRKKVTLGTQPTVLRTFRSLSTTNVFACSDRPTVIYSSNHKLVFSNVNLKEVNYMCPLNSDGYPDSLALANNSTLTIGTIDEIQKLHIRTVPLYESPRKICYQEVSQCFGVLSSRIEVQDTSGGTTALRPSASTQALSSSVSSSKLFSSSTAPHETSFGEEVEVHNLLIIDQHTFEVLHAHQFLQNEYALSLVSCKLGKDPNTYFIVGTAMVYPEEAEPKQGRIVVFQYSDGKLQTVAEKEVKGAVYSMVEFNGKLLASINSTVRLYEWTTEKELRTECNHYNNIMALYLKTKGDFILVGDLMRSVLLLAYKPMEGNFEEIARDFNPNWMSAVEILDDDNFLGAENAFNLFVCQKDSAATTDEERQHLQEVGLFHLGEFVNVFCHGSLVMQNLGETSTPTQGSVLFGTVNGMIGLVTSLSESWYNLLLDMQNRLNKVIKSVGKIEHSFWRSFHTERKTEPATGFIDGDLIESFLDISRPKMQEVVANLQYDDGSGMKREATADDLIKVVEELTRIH
T1 sequence (Q13619 whole entry partner): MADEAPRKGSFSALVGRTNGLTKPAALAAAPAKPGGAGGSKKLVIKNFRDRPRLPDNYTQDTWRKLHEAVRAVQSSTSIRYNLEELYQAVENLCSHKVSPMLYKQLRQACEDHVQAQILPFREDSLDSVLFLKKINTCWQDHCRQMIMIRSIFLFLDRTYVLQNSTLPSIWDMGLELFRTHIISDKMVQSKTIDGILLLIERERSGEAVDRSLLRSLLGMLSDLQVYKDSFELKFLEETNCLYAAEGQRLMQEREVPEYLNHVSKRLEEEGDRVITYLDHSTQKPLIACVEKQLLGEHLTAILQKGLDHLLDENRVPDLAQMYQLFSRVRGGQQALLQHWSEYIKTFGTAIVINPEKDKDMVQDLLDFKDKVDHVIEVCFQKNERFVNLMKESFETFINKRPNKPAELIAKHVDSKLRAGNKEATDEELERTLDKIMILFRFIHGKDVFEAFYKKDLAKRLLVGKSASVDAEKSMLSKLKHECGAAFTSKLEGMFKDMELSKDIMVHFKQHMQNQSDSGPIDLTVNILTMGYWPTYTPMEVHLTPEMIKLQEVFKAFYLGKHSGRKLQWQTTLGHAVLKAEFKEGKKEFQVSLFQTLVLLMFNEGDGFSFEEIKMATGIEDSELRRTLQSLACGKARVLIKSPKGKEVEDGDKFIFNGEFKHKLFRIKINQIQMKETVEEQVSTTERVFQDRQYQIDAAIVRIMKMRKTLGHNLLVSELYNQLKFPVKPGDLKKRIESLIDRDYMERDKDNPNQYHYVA
T1 sequence (P62877 whole entry partner): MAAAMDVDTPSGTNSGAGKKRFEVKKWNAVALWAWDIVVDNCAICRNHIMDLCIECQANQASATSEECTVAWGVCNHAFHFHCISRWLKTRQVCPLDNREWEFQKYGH

With Nc1ccc(F)c2c1C(=S)N(C1CCC(=S)NC1=O)C2=O (stereo not shown) [F-3,6′-DP] the pIC50 was 5.58.
